The results in this text go back to paper PMC12281475, “Mediator Kinase Inhibitor Selectivity and Activity in Colorectal Cancer” (ACS Chemical Biology, 2025).

In test [1] the test system is MED14 phosphorylation in SW620 cells. Briefly: CDK-substrate motif immunoprecipitation and MED14 immunoblot, SW620. To be noted: parent SW620, 350 nM, 6 h. Format: cell-based, human. The text has this: 3 Mediator kinase knockout alters STAT1^SER727phosphorylation and promoter activity in SW620 human colon cancer cells. (A) Capillary immunoassay of Mediator kinase module expression and pSTAT1^SER727 biomarker in multiple independent knockout clones. GAPDH was included as a loading control. […] Controls included IgG alone for background, DMEM for untreated cells, and DMSO as a vehicle control. MED14 was detected as a doublet pair of bands by immunoblotting of cell lysates (middle gel panel). […] The lower panel includes vinculin as a loading control. (C) Promoter reporter results from CDK8 knockout clone 1 relative to parent SW620 cells. Data represent mean ± s.e.m (n = 3). The black horizontal line indicates unchanged reporter activity, while the horizontal red line highlights reporters with altered activity ±1.5-fold. […]
Cell monolayers were washed with PBS twice and lysed using a modified RIPA buffer, mRIPA (50 mM TRIS-HCl pH 7.4, 1% NP-40 substitute, 0.5% NaDOC, 150 mM NaCl, 1 mM EDTA, 0.02% SDS and 1:100 dilution of proteinase and phosphatase inhibitor cocktail, (#5872, Cell Signaling Technology) with overnight freezing at -80 °C and sonication of the cell pellet. Lysates were clarified by centrifugation and supernatants collected and protein concentration determined by a bicinchoninic acid (BCA) assay. […]
(In general: Immunoblotting shows a protein as a band on a membrane.)

For the next test, the system named is COLO205 cells. The test can be described thus: Promoter reporter panel (transient luciferase constructs), COLO205. Format: cell-based, human. To be noted: COLO205, 350 nM, 6 h.
Test [2] relates to SW620 cells. Briefly: Promoter reporter panel (transient luciferase constructs), SW620. Type of test: cell-based, human. To be noted: parent SW620, 350 nM, 6 h. On the procedure: Transcription factor activity was assayed in cell lines using 45 different plasmid reporter constructs encoding firefly luciferase under the control of a basal promoter element downstream of specific transcriptional response elements (Qiagen, Germany; Supporting Table S1). Firefly luciferase under the control of basal promoter element alone was used to establish the baseline signal and cotransfection of a construct expressing renilla luciferase from a CMV-promoter was used as a transfection control. Cells were reverse-transfected with reporter plasmids, compounds were added 42 h post transfection and reporter activity quantified following 6 h continuous exposure. […]
multichannel pipette. Where indicated, spheroids were treated at day 4. At days 3, 6 and 8 following compound addition, 50% medium replenishment was performed. Cell-titre Glo analyses were carried out at day 14 for luminescence measurement on a Synergy 2 SL Luminescence microplate reader (BioTek, UK). Values are means ± […]
Single and double knockout clones of human SW620 colon cancer cells lacking CDK8, CDK19 or both kinases were generated using a CRISPR/Cas9 knockout strategy.
Constructs for knockout carried a Cas9 gene, a fluorescent protein gene (GFP for CDK8 and RFP for CDK19) and sgRNAs to human CDK8 […]
Single and double CDK8 and CDK19 knockout clones were generated by transiently transfecting SW620 cells using Lipofectamine 3000 (Thermo Fisher Scientific, UK).
Cells were harvested 72 hours post-transfection and the top 1% GFP, RFP or GFP/RFP positive cells were sorted by FACS into 96 well plates at one cell/well.
Knockout clones were identified by a capillary immunoassay for CDK8 or CDK19 […]
kinase mutant (CDK8D173A)2 were established by transfection of CDK8 CRISPR knockout clone 1 with a pCMV6-CDK8-cMyc-FLAG construct.
Transcription factor promoter reporter assays were carried out to define signalling pathways and biological processes modulated by CDK8/19 ligands. […]
and body weights recorded.

Test [3] relates to SW620 cells. The test can be described thus: Tumour spheroid growth assay (CellTitre-Glo), SW620 parent and knockout clones. To be noted: SW620 spheroids. Type of test: cell-based, human.
For test [4], the system named is phospho-STAT1^SER727 in SW620 tumor xenografts. Briefly: Tumor phospho-STAT1 SER727 relative to total STAT1, electrochemiluminescent ELISA. Format: in vivo, mice. To be noted: 6 h after final dose. Background: An ELISA detects its analyte on a solid surface through an enzyme-linked reagent.
Setting [5] is: 14-20 days, 42 mg/kg p.o qd 5/7 days.

Procedure for COLO205 cells: Transcription factor promoter reporter assays were carried out to define signalling pathways and biological processes modulated by CDK8/19 ligands. A panel of plasmid reporter constructs encoding firefly luciferase under the control of a basal promoter element with specific transcriptional response elements were used (Qiagen, Germany;
Firefly luciferase under the control of the minimal promoter element (TATA box) alone was used to establish the base-line signal and a construct expressing renilla luciferase from a CMV-promoter was used as a transfection control. COLO205 human colon cancer cells or SW620 parental and CRISPR KO cells were reverse-transfected with the panel of plasmid reporters in a 96 well plate format. The reporter mixes were prepared at 40:1 ratio of fLUC to rLUC plasmid at a final concentration of
100 ng/ml. For each well 1 ul plasmid was complexed with 1 ul Lipofectamine 2000
(Thermo Fisher Scientific, UK) in 50 ul OptiMEM (Thermo Fisher Scientific, UK) media
for 20 mins at room temperature. Cells were trypsinised and 50 ul of cells at 2e5
cells/ml in supplemented DMEM were added to the 50 ul of plasmid:lipofectamine
mixture in OptiMEM in a well of a 96-well white opaque flat bottom microtiter plate.
fLUC and rLUC were measured by the addition of 100 ul dual glo luciferase reagent
(Promega, USA). Reporter activity was quantified in untreated cells 48 hours post- […]

For the molecule `Cn1cc(-c2ccc(-c3cncc(Cl)c3N3CCC4(CCNC4=O)CC3)cc2)cn1` [CCT251545], in test [1], the “MED14 upper band (immunoblot of cell lysates)” value is “reduced by active compound treatment”. Moreover, the “reduction of activity of TCF/LEF, SP1 and PAX6 reporter constructs” value in the test on COLO205 cells was above 1.5 fold. The “WNT-regulated TCF/LEF reporter construct activity” value in the test on COLO205 cells (p adj < 0.001) is “most significant decrease”. Also, the p53 reporter activity result with SW620 cells [2] is given as “significant decrease”. In the test on SW620 cells [2] (mean ± s.e.m), the “AARE promoter reporter activity relative to vehicle control” value amounted to 0.82 ± 0.06 and the “AP1 promoter reporter activity relative to vehicle control” value stood at 0.78 ± 0.04. In the test on SW620 cells [3], the “spheroid growth of CDK8 and double knockout clones” value was “insensitive to treatment”; the “spheroid growth of CDK19 knockout clones” value is “growth inhibition similar to the parental line”.

Consider `Cn1ncc2cc(-c3cnc(N)c(Cl)c3N3CCC4(CCNC4=O)CC3)ccc21` [CCT251921], for which, in test [4] (setting [5]), the “tumor phospho-STAT1 SER727, CDK8/19 clones” value was “not”; the “tumor phospho-STAT1 SER727, parent, CDK19 and CDK8 clones” value was “significantly reduced”. In addition, the “tumor phospho-STAT1 SER727 levels, CDK8 and CDK8/19 knockouts” value in test [4] (3 days, 42 mg/kg p.o. qd, except CDK8-KO-cl2 (p < 0.05)) is “no significant change”. Also, in test [4] (3 days, 42 mg/kg p.o. qd, p < 0.0001), the “tumor phospho-STAT1 SER727 levels, parent and CDK19 clones” value is reported as “significantly reduced”.
